Source: article PMC11530689, “Anti colorectal cancer activity and in silico studies of novel pyridine nortopsentin analog as cyclin dependent kinase 6 inhibitor” (Scientific Reports, 2024)

What was measured:
Assay in all cases: NCI 60 cell line screen
Format in all cases: cell-based
A498 = details: A498, Renal Cancer; single concentration 10^−5 M
Method: (§1) The cytotoxic activity of nortopsintin analogs (4a-4j) was determined by the national cancer institute (NCI, Bethesda, Maryland, USA) against 60 different cancer cell lines at a single concentration of (10^-5 M). For the determination of IC50 value, we used MTT assay kit (Sigma) according to the manufacturer's protocol. HCT-116 cells were seeded into a 96-well plate at a concentration of 20,000 cells/well. After 24 h, the media was aspirated and replaced with serum-free media containing serial dilutions of the 4i compound. […] The percentage of cytotoxicity was calculated using the following equation: % Cytotoxicity = [1 - ([…])] × 100.

ACHN = details: Renal Cancer, single concentration 10^−5 M
Method: as §1

BT-549 = details: BT-549, Breast Cancer; single concentration 10^−5 M
Method: as §1

CAKI-1 = details: CAKI-1, Renal Cancer; single concentration 10^−5 M
Method: as §1

CCRF-CEM = details: Leukemia, single concentration 10^−5 M
Method: as §1

COLO205 = details: COLO205, Colon Cancer; single concentration 10^−5 M
Method: as §1

DU-145 = details: DU-145, Prostate Cancer; single concentration 10^−5 M
Method: as §1

EKVX = details: Non-Small Cell Lung Cancer, single concentration 10^−5 M
Method: as §1

HCC-2998 = details: HCC-2998, Colon Cancer; single concentration 10^−5 M
Method: as §1

HCT-15 = details: HCT-15, Colon Cancer; single concentration 10^−5 M
Method: as §1

HOP-92 = details: HOP-92, Non-Small Cell Lung Cancer; single concentration 10^−5 M
Method: as §1

HS 578T = details: Breast Cancer, single concentration 10^−5 M
Method: as §1

IGROV1 = details: IGROV1, Ovarian Cancer; single concentration 10^−5 M
Method: as §1

KM12 = details: KM12, Colon Cancer; single concentration 10^−5 M
Method: as §1

LOX IMVI = details: Melanoma, single concentration 10^−5 M
Method: as §1

M14 = details: M14, Melanoma; single concentration 10^−5 M
Method: as §1

MALME-3M = details: Melanoma, single concentration 10^−5 M
Method: as §1

MCF7 = details: MCF7, Breast Cancer; single concentration 10^−5 M
Method: as §1

NCI-H226 = details: NCI-H226, Non-Small Cell Lung Cancer; single concentration 10^−5 M
Method: as §1

NCI-H23 = details: NCI-H23, Non-Small Cell Lung Cancer; single concentration 10^−5 M
Method: as §1

NCI-H460 = details: NCI-H460, Non-Small Cell Lung Cancer; single concentration 10^−5 M
Method: as §1

NCI-H522 = details: NCI-H522, Non-Small Cell Lung Cancer; single concentration 10^−5 M
Method: as §1

NCI/ADR-RES = details: Ovarian Cancer, single concentration 10^−5 M
Method: as §1

OVCAR-3 = details: OVCAR-3, Ovarian Cancer; single concentration 10^−5 M
Method: as §1

OVCAR-4 = details: OVCAR-4, Ovarian Cancer; single concentration 10^−5 M
Method: as §1

OVCAR-5 = details: OVCAR-5, Ovarian Cancer; single concentration 10^−5 M
Method: as §1

PC-3 = details: PC-3, Prostate Cancer; single concentration 10^−5 M
Method: as §1

SK-MEL-28 = details: SK-MEL-28, Melanoma; single concentration 10^−5 M
Method: as §1

SN12C = details: Renal Cancer, single concentration 10^−5 M
Method: as §1

SNB-19 = details: SNB-19, CNS Cancer; single concentration 10^−5 M
Method: as §1

SNB-75 = details: SNB-75, CNS Cancer; single concentration 10^−5 M
Method: as §1

SR = details: Leukemia, single concentration 10^−5 M
Method: as §1

SW-620 = details: SW-620, Colon Cancer; single concentration 10^−5 M
Method: as §1

T-47D = details: Breast Cancer, single concentration 10^−5 M
Method: as §1

TK-10 = details: TK-10, Renal Cancer; single concentration 10^−5 M
Method: as §1

UACC-257 = details: UACC-257, Melanoma; single concentration 10^−5 M
Method: as §1

UACC-62 = details: UACC-62, Melanoma; single concentration 10^−5 M
Method: as §1

UO-31 = details: UO-31, Renal Cancer; single concentration 10^−5 M
Method: as §1

SMILES	Growth % (A498) [%]	Growth % (ACHN) [%]	Growth % (BT-549) [%]	Growth % (CAKI-1) [%]	Growth % (COLO205) [%]	Growth % (DU-145) [%]	Growth % (EKVX) [%]	Growth % (HCC-2998) [%]	Growth % (HCT-15) [%]	Growth % (HOP-92) [%]	Growth % (HS 578T) [%]	Growth % (IGROV1) [%]	Growth % (KM12) [%]	Growth % (LOX IMVI) [%]	Growth % (M14) [%]	Growth % (MALME-3M) [%]	Growth % (MCF7) [%]	Growth % (NCI-H226) [%]	Growth % (NCI-H23) [%]	Growth % (NCI-H460) [%]	also measured
COc1ccc(-c2cc(-c3c[nH]c4ccccc34)nc(-c3c[nH]c4ccccc34)c2C#N)cc1 [4e]	108.69	95.12	97.48	84.47	102.89	108.02	91.11	128.75	89.77	82.07	100.69	85.18	96.65	86.06	93.75	113.82	90.48	92.14	103.56	107.18	Growth % (CCRF-CEM): 101.65%; Growth % (NCI-H522): 92.71%; Growth % (NCI/ADR-RES): 108.38%; Growth % (OVCAR-3): 96.29%; Growth % (OVCAR-4): 106.10%; Growth % (OVCAR-5): 103.69%; Growth % (PC-3): 89.91%; Growth % (SK-MEL-28): 108.94%; Growth % (SN12C): 99.19%; Growth % (SNB-19): 102.42%; Growth % (SNB-75): 97.63%; Growth % (SR): 89.59%; Growth % (SW-620): 113.43%; Growth % (T-47D): 86.61%; Growth % (TK-10): 141.73%; Growth % (UACC-257): 107.78%; Growth % (UACC-62): 95.53%; Growth % (UO-31): 74.78%
N#Cc1c(-c2ccc(O)cc2)cc(-c2c[nH]c3ccccc23)nc1-c1c[nH]c2ccccc12 [4j]	110.66	72.15	96.81	90.60	111.37	104.31	100.08	126.05	57.19	125.42	89.18	76.43	96.89	62.75	100.26	114.20	87.55	86.10	89.30	103.74	Growth % (CCRF-CEM): 76.51%; Growth % (NCI-H522): 85.59%; Growth % (NCI/ADR-RES): 102.41%; Growth % (OVCAR-3): 92.93%; Growth % (OVCAR-4): 94.07%; Growth % (OVCAR-5): 108.44%; Growth % (PC-3): 98.38%; Growth % (SK-MEL-28): 76.45%; Growth % (SN12C): 95.63%; Growth % (SNB-19): 108.35%; Growth % (SNB-75): 90.85%; Growth % (SR): 76.19%; Growth % (SW-620): 108.39%; Growth % (T-47D): 98.31%; Growth % (TK-10): 149.07%; Growth % (UACC-257): 108.53%; Growth % (UACC-62): 96.73%; Growth % (UO-31): 78.37%
N#Cc1c(-c2ccc(Cl)cc2)cc(-c2c[nH]c3ccccc23)nc1-c1c[nH]c2ccccc12 [4c]	97.38	101.81	113.43	87.84	106.5	108.08	87.50	117.80	98.27	99.01	100.65	91.10	102.73	101.39	102.44	107.80	89.99	96.15	89.48	106.15	Growth % (CCRF-CEM): 101.97%; Growth % (NCI-H522): 96.57%; Growth % (NCI/ADR-RES): 98.53%; Growth % (OVCAR-3): 107.09%; Growth % (OVCAR-4): 106.75%; Growth % (OVCAR-5): 105.15%; Growth % (PC-3): 100.13%; Growth % (SK-MEL-28): 103.30%; Growth % (SN12C): 97.84%; Growth % (SNB-19): 101.34%; Growth % (SNB-75): 100.87%; Growth % (SR): 98.46%; Growth % (SW-620): 106.55%; Growth % (T-47D): 100.54%; Growth % (TK-10): 138.81%; Growth % (UACC-257): 108.88%; Growth % (UACC-62): 89.22%; Growth % (UO-31): 70.21%
COc1cc(OC)cc(-c2cc(-c3c[nH]c4ccccc34)nc(-c3c[nH]c4ccccc34)c2C#N)c1 [4f]	96.67	97.24	103.60	91.03	110.17	101.42	91.45	112.62	101.68	95.02	102.35	93.71	98.72	82.70	94.97	108.42	90.74	87.28	103.68	103.37	Growth % (NCI-H522): 92.06%; Growth % (NCI/ADR-RES): 97.14%; Growth % (OVCAR-3): 99.19%; Growth % (OVCAR-4): 101.53%; Growth % (OVCAR-5): 108.89%; Growth % (PC-3): 93.60%; Growth % (SK-MEL-28): 100.94%; Growth % (SN12C): 95.11%; Growth % (SNB-19): 96.57%; Growth % (SNB-75): 87.63%; Growth % (SR): 81.27%; Growth % (SW-620): 102.51%; Growth % (T-47D): 98.31%; Growth % (TK-10): 124.45%; Growth % (UACC-257): 112.07%; Growth % (UACC-62): 93.55%; Growth % (UO-31): 71.31%
